# Experimental data: US11840686B2, “Modulation of prekallikrein (PKK) expression” (Ionis Pharmaceuticals, Inc., priority 2013, dated 2023)
# Strand notation (5' to 3'): a small letter for the sugar, then the base; units joined by * are phosphorothioate-linked, units joined directly phosphodiester-linked; [ ] holds rarer units or linkages, { } end groups; capitals alone tell only the bases. e = 2'-O-(2-methoxyethyl) (MOE); k = constrained ethyl (cEt); [5mC] = 5-methylcytosine; d = 2'-deoxy (DNA)
# System: human PKK mRNA
# Experiment: Antisense inhibition of human PKK mRNA in HepaRG cells, 1,000 nM, MOE/deoxy/cEt oligonucleotides (Example 3)
# Type: cell-based
# Method in brief: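 Readout is percent PKK mRNA reduction against untreated controls, by real-time PCR (RTS3454) adjusted for total RNA via RIBOGREEN. Oligonucleotides, phosphorothioate gapmers of 16 nucleosides with cEt, MOE and deoxy sugars, were delivered at 1,000 nM by electroporation to 20,000 HepaRG cells/well for roughly 24 h.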
# [1] = Table 19, HepaRG cells, electroporation with 1,000 nM antisense oligonucleotide, approximately 24 hours, PKK mRNA by RT-PCR (RTS3454), relative to untreated control cells
# [2] = HepaRG cells, electroporation with 1,000 nM antisense oligonucleotide, approx. 24 hours, PKK mRNA by RT-PCR (RTS3454), relative to untreated control cells, Table 26 experiment
# [3] = Table 28, HepaRG cells, 1,000 nM antisense oligonucleotide, human PKK mRNA
# [4] = HepaRG cells, 1,000 nM antisense oligonucleotide, Table 29
# [5] = Table 30, human PKK mRNA, HepaRG cells, 1,000 nM antisense oligonucleotide
# [6] = Table 27, HepaRG cells, 1,000 nM antisense oligonucleotide, human PKK mRNA
# [7] = Table 20, HepaRG cells, electroporation with 1,000 nM antisense oligonucleotide, approximately 24 hours, PKK mRNA by RT-PCR (RTS3454), relative to untreated control cells
# [8] = Table 22 experiment, HepaRG cells, electroporation with 1,000 nM antisense oligonucleotide, approx. 24 hours, PKK mRNA by RT-PCR (RTS3454), relative to untreated control cells
# [9] = HepaRG cells, electroporation with 1,000 nM antisense oligonucleotide, approximately 24 hours, primer probe set RTS3454, relative to untreated control cells, experiment of Table 23
# [10] = PKK mRNA, HepaRG cells, 1,000 nM antisense oligonucleotide, Table 31
# [11] = HepaRG cells, electroporation with 1,000 nM antisense oligonucleotide, approx. 24 hours, PKK mRNA by RT-PCR (RTS3454), relative to untreated control cells, Table 25 experiment
# [12] = HepaRG cells, electroporation with 1,000 nM antisense oligonucleotide, approximately 24 hours, primer probe set RTS3454, relative to untreated control cells, experiment of Table 24
substance,measurement,setting,value
548146 (eG*eT*k[5mC]*d[5mC]*dT*dT*dA*dG*dG*dA*dT*dG*d[5mC]*kA*kA*eA; antisense) [compound 548146],% inhibition,[1],68%
548251 (antisense eG*e[5mC]*k[5mC]*dT*dT*dT*dG*dT*dG*dA*dT*dG*d[5mC]*kG*kA*eT) [compound 548251],% inhibition,[2],13%
548477 (eG*e[5mC]*kA*d[5mC]*dG*dA*dG*d[5mC]*dT*dT*dG*d[5mC]*d[5mC]*kT*kG*eT; antisense) [compound 548477],% inhibition,[3],26%
548573 (e[5mC]*e[5mC]*kA*dG*dT*d[5mC]*dA*d[5mC]*d[5mC]*dA*d[5mC]*d[5mC]*dA*kT*kT*eG; antisense) [compound 548573],% inhibition,[4],65%
548428 (antisense eT*eA*kA*d[5mC]*dT*dA*dT*dA*dA*d[5mC]*dA*dG*dT*kA*kT*e[5mC]) [compound 548428],% inhibition,[5],0%
548544 (antisense eG*e[5mC]*kT*dG*dT*dG*dA*d[5mC]*dT*d[5mC]*dA*dG*dA*kT*k[5mC]*eA) [compound 548544],% inhibition,[4],62%
548340 (antisense eG*eA*kT*dG*dA*dT*d[5mC]*d[5mC]*dT*d[5mC]*dA*d[5mC]*dA*kT*kA*e[5mC]) [compound 548340],% inhibition,[6],35%
548099 (antisense e[5mC]*eT*k[5mC]*dA*dG*d[5mC]*dG*dA*d[5mC]*dT*dT*dT*dG*kG*kT*eG) [compound 548099],% inhibition,[1],55%
548353 (antisense e[5mC]*eT*kG*d[5mC]*dT*dG*dG*dT*dT*dG*dA*dG*dA*kA*kT*e[5mC]) [compound 548353],% inhibition,[6],48%
548102 (antisense eG*eT*kA*d[5mC]*dT*d[5mC]*dA*dG*d[5mC]*dG*dA*d[5mC]*dT*kT*kT*eG) [compound 548102],% inhibition,[1],58%
547848 (antisense eA*eT*kG*dT*d[5mC]*dT*d[5mC]*dG*dA*dT*dG*dG*d[5mC]*kA*kA*eG) [compound 547848],% inhibition,[7],93%
same,% inhibition,[8],79%
548454 (eA*e[5mC]*kT*dG*dT*dA*d[5mC]*d[5mC]*dT*dA*dT*dA*dA*k[5mC]*kA*eG; antisense) [compound 548454],% inhibition,[5],17%
548130 (eA*eT*kT*dT*dG*dA*d[5mC]*dT*dT*dG*dA*dA*d[5mC]*kT*k[5mC]*eA; antisense) [compound 548130],% inhibition,[1],27%
547951 (eA*eG*kA*dT*dA*dT*dG*dG*dT*dG*dT*dT*dT*kT*k[5mC]*eT; antisense) [compound 547951],% inhibition,[9],25%
548367 (antisense eG*eT*kT*d[5mC]*dT*dT*dG*dA*dG*dT*dG*dT*dA*kG*kA*eG) [compound 548367],% inhibition,[6],52%
548431 (antisense eT*eA*k[5mC]*d[5mC]*dT*dA*dT*dA*dA*d[5mC]*dT*d[5mC]*dT*kA*kA*e[5mC]) [compound 548431],% inhibition,[5],9%
548426 (antisense eT*eA*kT*dA*dA*d[5mC]*dA*dG*dT*dA*dT*d[5mC]*dA*k[5mC]*kT*eG) [compound 548426],% inhibition,[5],14%
547970 (antisense e[5mC]*eT*k[5mC]*d[5mC]*d[5mC]*dG*dG*dG*dT*dA*dA*dA*dT*kT*kT*eT) [compound 547970],% inhibition,[9],42%
547773 (antisense eT*e[5mC]*kT*dT*dG*dG*dA*dG*dG*dT*dG*dA*dG*kT*k[5mC]*eT) [compound 547773],% inhibition,"Table 21 experiment, HepaRG cells, electroporation with 1,000 nM antisense oligonucleotide, approx. 24 hours, PKK mRNA by RT-PCR (RTS3454), relative to untreated control cells",47%
548633 (antisense e[5mC]*eA*kA*dG*dG*d[5mC]*dA*dT*dG*dT*dG*dT*dG*k[5mC]*kA*e[5mC]) [compound 548633],% inhibition,[10],41%
547949 (eG*eT*kG*dT*dT*dT*dT*d[5mC]*dT*dT*dG*dA*dG*kG*kA*eG; antisense) [compound 547949],% inhibition,[9],6%
548224 (e[5mC]*e[5mC]*kA*dT*dA*dG*dA*d[5mC]*d[5mC]*d[5mC]*dA*dG*dA*kA*kT*e[5mC]; antisense) [compound 548224],% inhibition,[11],20%
547885 (e[5mC]*eT*k[5mC]*dT*dG*d[5mC]*d[5mC]*dT*dT*dG*dT*dG*dA*kA*kA*eT; antisense) [compound 547885],% inhibition,[7],45%
same,% inhibition,[8],57%
547916 (e[5mC]*e[5mC]*kT*dG*dG*d[5mC]*dA*dA*d[5mC]*dA*dT*d[5mC]*d[5mC]*kA*k[5mC]*eA; antisense) [compound 547916],% inhibition,[7],70%
same,% inhibition,[8],56%
547895 (eA*eG*kG*d[5mC]*dA*dA*dT*dT*dG*dT*dT*d[5mC]*d[5mC]*kG*kG*eT; antisense) [compound 547895],% inhibition,[8],94%
548076 (e[5mC]*eA*k[5mC]*d[5mC]*dT*dT*dT*d[5mC]*dT*d[5mC]*d[5mC]*dT*dT*k[5mC]*kG*eA; antisense) [compound 548076],% inhibition,[1],26%
548625 (antisense eG*eT*kT*d[5mC]*dT*dA*d[5mC]*dA*d[5mC]*dA*d[5mC]*dA*dG*kT*kA*e[5mC]) [compound 548625],% inhibition,[10],0%
548142 (eA*e[5mC]*kT*d[5mC]*dT*d[5mC]*d[5mC]*dA*dT*dG*d[5mC]*dT*dT*kT*kG*e[5mC]; antisense) [compound 548142],% inhibition,[1],44%
548283 (antisense eG*eG*k[5mC]*dT*dT*dA*dT*dG*d[5mC]*dT*d[5mC]*d[5mC]*dT*kT*k[5mC]*eT) [compound 548283],% inhibition,[2],56%
548467 (e[5mC]*eA*kT*d[5mC]*dA*d[5mC]*dT*dG*dT*dA*d[5mC]*d[5mC]*dT*kA*kT*eA; antisense) [compound 548467],% inhibition,[3],20%
548121 (antisense eT*e[5mC]*kT*dG*dG*dA*d[5mC]*dT*dG*d[5mC]*dT*dT*d[5mC]*kT*k[5mC]*eA) [compound 548121],% inhibition,[1],64%
548298 (eG*eG*kA*d[5mC]*dA*dA*dT*dA*dT*dG*dT*d[5mC]*dT*k[5mC]*k[5mC]*eT; antisense) [compound 548298],% inhibition,[2],0%
548117 (antisense e[5mC]*eT*k[5mC]*dA*dT*dG*d[5mC]*dT*dG*dG*dT*dG*dA*k[5mC]*kT*eG) [compound 548117],% inhibition,[1],73%
547980 (antisense eA*eA*kG*dT*d[5mC]*dT*d[5mC]*dT*dT*dG*dG*d[5mC]*dA*kA*kA*e[5mC]) [compound 547980],% inhibition,[9],54%
547950 (eG*eG*kT*dG*dT*dT*dT*dT*d[5mC]*dT*dT*dG*dA*kG*kG*eA; antisense) [compound 547950],% inhibition,[9],49%
547957 (eG*eG*kT*dT*dA*dA*dA*dA*dG*dG*d[5mC]*dT*dA*kT*kA*eT; antisense) [compound 547957],% inhibition,[9],6%
548291 (e[5mC]*e[5mC]*kT*dG*dT*dT*dA*dG*dA*dG*dT*dT*dG*kG*k[5mC]*e[5mC]; antisense) [compound 548291],% inhibition,[2],35%
548689 (DNA e[5mC]*e[5mC]*kA*dG*dG*dT*dG*d[5mC]*dA*dG*d[5mC]*dA*d[5mC]*kG*kG*eA) [compound 548689],% inhibition,[10],12%
548036 (e[5mC]*e[5mC]*kA*d[5mC]*dT*dA*dT*dA*dG*dA*dT*dG*d[5mC]*kG*k[5mC]*e[5mC]; antisense) [compound 548036],% inhibition,[12],74%
548389 (eT*eT*kG*dA*dG*dG*dA*dA*dA*dG*dA*d[5mC]*d[5mC]*kT*kG*e[5mC]; antisense) [compound 548389],% inhibition,[5],11%
548093 (antisense eT*eT*kT*dG*d[5mC]*dA*dA*dA*d[5mC]*dT*dA*dA*dG*kG*kG*eA) [compound 548093],% inhibition,[1],0%
548473 (e[5mC]*e[5mC]*kA*dA*d[5mC]*d[5mC]*dT*dT*d[5mC]*d[5mC]*d[5mC]*dA*dA*kT*k[5mC]*eT; antisense) [compound 548473],% inhibition,[3],0%
548017 (e[5mC]*eA*kA*dG*dA*dA*dG*dA*dG*dT*dT*dT*dG*kT*kT*e[5mC]; antisense) [compound 548017],% inhibition,[12],3%
547876 (antisense eA*e[5mC]*kA*d[5mC]*dT*dG*d[5mC]*dT*dA*dA*d[5mC]*d[5mC]*dT*kT*kA*eG) [compound 547876],% inhibition,[7],78%
same,% inhibition,[8],59%
548159 (e[5mC]*eG*k[5mC]*dA*dT*dT*dG*dT*d[5mC]*dA*dG*d[5mC]*d[5mC]*k[5mC]*k[5mC]*eT; antisense) [compound 548159],% inhibition,[11],59%
548116 (antisense eT*e[5mC]*kA*dT*dG*d[5mC]*dT*dG*dG*dT*dG*dA*d[5mC]*kT*kG*e[5mC]) [compound 548116],% inhibition,[1],3%
548074 (e[5mC]*e[5mC]*kT*dT*dT*d[5mC]*dT*d[5mC]*d[5mC]*dT*dT*d[5mC]*dG*kA*kG*eA; antisense) [compound 548074],% inhibition,[1],0%
